Test results: patent US20050171358A1 (priority 2002, published 2005)

What was measured:
[1] = system: Colletotrichum lagenarium; settings: 200 ppm spray on cucumber (3 leaf stage), inoculated next day; lesion numbers on first and second leaves after 7 days in green house, graded by Table 5
Pyricularia oryzae = assay type: in vivo; settings: 200 ppm spray on rice (Koshihikari, 3 leaf stage), inoculated next day; lesion numbers on third leaves after 7 days in green house, graded by Table 5

`COc1ccc(C(=O)NCc2cc(/C=C/C(C)C)no2)cc1` was tested, and the “Evaluation (effect for cucumber anthracnose)” value [1] was 4 (1˜5) and the “Evaluation (effect for rice blast)” value (Pyricularia oryzae) was 4 (1˜5).

`O=C(NCc1cc(Cc2ccccc2)no1)OC1CCCCC1` was tested, and the “Evaluation (effect for rice blast)” value (Pyricularia oryzae) was 4 (1˜5).

With `CC(C)c1cc(CNC(=O)Oc2ccccc2)on1` [I-4] the “Evaluation (effect for cucumber anthracnose)” value [1] was 5 (0) and the “Evaluation (effect for rice blast)” value (Pyricularia oryzae) was 5 (0).

In the case of `O=C(NCc1cc(C2CCCCC2)no1)Oc1ccccc1` [I-6, phenyl[(3-cyclohexyl-5-isoxazolyl)methyl]carbamate], the “Evaluation (effect for cucumber anthracnose)” value [1] is reported as 5 (0) and the “Evaluation (effect for rice blast)” value (Pyricularia oryzae) is reported as 5 (0).

In the case of `CC(C)Cc1cc(CNC(=O)Oc2ccccc2)on1` [I-8, phenyl [(3-isobutyl-5-isoxazolyl)methyl]carbamate], the “Evaluation (effect for cucumber anthracnose)” value [1] is reported as 3 (6˜10) and the “Evaluation (effect for rice blast)” value (Pyricularia oryzae) is reported as 3 (6˜10).

In the case of `Cc1ccc(-c2cc(CNC(=O)Oc3ccccc3)on2)cc1` [I-25, phenyl{[3-(4-tolyl)-5-isoxazolyl)methyl]carbamate], the “Evaluation (effect for rice blast)” value (Pyricularia oryzae) is reported as 5 (0).

For `COc1ccc(-c2cc(CNC(=O)Oc3ccccc3)on2)cc1` [I-26, phenyl{[3-(4-methoxyphenyl)-5-isoxazolyl]methyl}carbamate], the “Evaluation (effect for cucumber anthracnose)” value [1] was 5 (0) and the “Evaluation (effect for rice blast)” value (Pyricularia oryzae) was 5 (0).

In the case of `O=C(NCc1cc(-c2ccc(F)cc2)no1)Oc1ccccc1` [I-27, phenyl{[3-(4-fluorophenyl)-5-isoxazolyl)methyl]carbamate], the “Evaluation (effect for cucumber anthracnose)” value [1] is reported as 5 (0) and the “Evaluation (effect for rice blast)” value (Pyricularia oryzae) is reported as 5 (0).

For `O=C(NCc1cc(-c2ccccc2Cl)no1)Oc1ccccc1` [I-28, phenyl{[3-(2-chlorophenyl)-5-isoxazolyl]methyl}carbamate], the “Evaluation (effect for cucumber anthracnose)” value [1] was 5 (0) and the “Evaluation (effect for rice blast)” value (Pyricularia oryzae) was 4 (1˜5).

`O=C(NCc1cc(-c2cccc(Cl)c2)no1)Oc1ccccc1` [I-29, phenyl{[3-(3-chlorophenyl)-5-isoxazolyl)methyl]carbamate] was tested, and the “Evaluation (effect for cucumber anthracnose)” value [1] was 5 (0) and the “Evaluation (effect for rice blast)” value (Pyricularia oryzae) was 5 (0).

`O=C(NCc1cc(-c2ccc(Cl)cc2)no1)Oc1ccccc1` [I-30, phenyl{[3-(4-chlorophenyl)-5-isoxazolyl)methyl]carbamate] was tested, and the “Evaluation (effect for cucumber anthracnose)” value [1] was 5 (0) and the “Evaluation (effect for rice blast)” value (Pyricularia oryzae) was 5 (0).

For `O=C(NCc1cc(-c2ccccn2)no1)Oc1ccccc1` [I-31, phenyl{[3-(2-pyrizyl)-5-isoxazolyl]methyl}carbamate], the “Evaluation (effect for rice blast)” value (Pyricularia oryzae) was 4 (1˜5).

For `O=C(NCc1cc(-c2cccs2)no1)Oc1ccccc1` [I-32, phenyl{[3-(2-thienyl)-5-isoxazolyl)methyl]carbamate], the “Evaluation (effect for rice blast)” value (Pyricularia oryzae) was 5 (0).

`O=C(NCc1cc(-c2ccco2)no1)Oc1ccccc1` [I-33, phenyl{[3-(2-furyl)-5-isoxazolyl)methyl]carbamate] was tested, and the “Evaluation (effect for cucumber anthracnose)” value [1] was 5 (0) and the “Evaluation (effect for rice blast)” value (Pyricularia oryzae) was 5 (0).

`O=C(NCc1cc(Cc2ccccc2)no1)Oc1ccccc1` [I-38, phenyl[(3-benzyl-5-isoxazolyl)methyl]carbamate] was tested, and the “Evaluation (effect for cucumber anthracnose)” value [1] was 5 (0) and the “Evaluation (effect for rice blast)” value (Pyricularia oryzae) was 5 (0).

In the case of `O=C(NCc1cc(-c2ccccc2)no1)OCc1ccccc1` [I-41, benzyl [(3-phenyl-5-isoxazolyl)methyl]carbamate], the “Evaluation (effect for cucumber anthracnose)” value [1] is reported as 4 (1˜5) and the “Evaluation (effect for rice blast)” value (Pyricularia oryzae) is reported as 3 (6˜10).

In the case of `CC(C)(NC(=O)NCc1cc(-c2ccccc2)no1)c1ccccc1` [I-45], the “Evaluation (effect for cucumber anthracnose)” value [1] is reported as 4 (1˜5) and the “Evaluation (effect for rice blast)” value (Pyricularia oryzae) is reported as 4 (1˜5).

`CC(C)c1cc(CNC(=O)C(C)c2ccccc2)on1` (centres unmarked) [I-47, N-[(3-isopropyl-5-isoxazolyl)methyl]-2-phenylpropanamide] was tested, and the “Evaluation (effect for cucumber anthracnose)” value [1] was 4 (1˜5) and the “Evaluation (effect for rice blast)” value (Pyricularia oryzae) was 4 (1˜5).

For `O=C(Cc1ccccc1)NCc1cc(-c2ccccc2)no1` [I-48, N-[(3-phenyl-5-isoxazolyl)methyl]-2-phenylethanamide], the “Evaluation (effect for rice blast)” value (Pyricularia oryzae) was 4 (1˜5).

For `O=C(NCc1cc(-c2ccccc2)no1)C(Cl)c1ccccc1` (centres unmarked) [I-49, N-[(3-phenyl-5-isoxazolyl)methyl]-2-chloro-2-phenylethanamide], the “Evaluation (effect for rice blast)” value (Pyricularia oryzae) was 3 (6˜10).

With `CC(C)c1cc(CNC(=O)Cc2ccccc2)on1` [I-63, N-[(3-isopropyl-5-isoxazolyl)methyl]phenylacetamide] the “Evaluation (effect for rice blast)” value (Pyricularia oryzae) was 2 (11˜20).

In the case of `CC(C)Cc1cc(CNC(=O)Cc2ccccc2)on1` [I-64, N-[(3-isobutyl-5-isoxazolyl)methyl]phenylacetamide], the “Evaluation (effect for cucumber anthracnose)” value [1] is reported as 3 (6˜10) and the “Evaluation (effect for rice blast)” value (Pyricularia oryzae) is reported as 2 (11˜20).

With `Cc1ccc(-c2cc(CNC(=O)Nc3ccccc3)on2)cc1` [II-2, 3-{[3-(4-tolyl)-5-isoxazolyl]methyl}-1-phenyl urea] the “Evaluation (effect for rice blast)” value (Pyricularia oryzae) was 5 (0).

With `CC(C)c1cc(CNC(=O)Nc2ccccc2)on1` [II-3, 1-[(3-isopropyl-5-isoxazolyl)methyl]-3-phenylurea] the “Evaluation (effect for rice blast)” value (Pyricularia oryzae) was 3 (6˜10).

In the case of `O=C(NCc1cc(-c2ccccc2)no1)NC1CCCCC1` [II-7, 3-[(3-phenyl-5-isoxazolyl)methyl]-1-cyclohexyl urea], the “Evaluation (effect for cucumber anthracnose)” value [1] is reported as 5 (0) and the “Evaluation (effect for rice blast)” value (Pyricularia oryzae) is reported as 5 (0).

With `Cc1ccc(-c2cc(CNC(=O)NC3CCCCC3)on2)cc1` [II-9, 1-{[3-(4-tolyl)-5-isoxazolyl]methyl}-3-cyclohexylurea] the “Evaluation (effect for cucumber anthracnose)” value [1] was 5 (0) and the “Evaluation (effect for rice blast)” value (Pyricularia oryzae) was 5 (0).

In the case of `Cc1ccc(-c2cc(CNC(=O)NC3CCCC3)on2)cc1` [II-10, 3-[3-(4-tolyl)-5-isoxazolyl]methyl-1-cyclopentylurea], the “Evaluation (effect for cucumber anthracnose)” value [1] is reported as 5 (0) and the “Evaluation (effect for rice blast)” value (Pyricularia oryzae) is reported as 4 (1˜5).

In the case of `CN(C(=O)NCc1cc(-c2ccccc2)no1)c1ccccc1` [II-12, 3-[(3-phenyl-5-isoxazolyl]methyl]-1-methyl-1-phenyl urea], the “Evaluation (effect for cucumber anthracnose)” value [1] is reported as 4 (1˜5) and the “Evaluation (effect for rice blast)” value (Pyricularia oryzae) is reported as 4 (1˜5).

`O=C(NCc1cc(Cc2ccccc2)no1)NC1CCCCC1` [II-13, 1-[(3-benzyl-5-isoxazolyl)methyl]-3-cyclohexylurea] was tested, and the “Evaluation (effect for cucumber anthracnose)” value [1] was 5 (0) and the “Evaluation (effect for rice blast)” value (Pyricularia oryzae) was 5 (0).

`O=C(NCc1cc(Cc2ccccc2)no1)NC1CCCC1` [II-14, 1-[(3-benzyl-5-isoxazolyl)methyl]-3-cyclopentylurea] was tested, and the “Evaluation (effect for cucumber anthracnose)” value [1] was 5 (0) and the “Evaluation (effect for rice blast)” value (Pyricularia oryzae) was 4 (1˜5).

In the case of `CC(C)c1cc(CNC(=O)NC2CCCCC2)on1` [II-15, 1-[(3-isopropyl-5-isoxazolyl)methyl]-3-cyclohexylurea], the “Evaluation (effect for cucumber anthracnose)” value [1] is reported as 4 (1˜5) and the “Evaluation (effect for rice blast)” value (Pyricularia oryzae) is reported as 3 (6˜10).

`O=C(NCc1cc(-c2ccccc2)no1)Nc1ccccc1Cl` [II-48, 1-[(3-phenyl-5-isoxazolyl)methyl]-3-(2-chlorophenyl)urea] was tested, and the “Evaluation (effect for cucumber anthracnose)” value [1] was 4 (1˜5) and the “Evaluation (effect for rice blast)” value (Pyricularia oryzae) was 3 (6˜10).

For `O=C(NCc1cc(-c2ccccc2)no1)Nc1cccc(Cl)c1` [II-49, 1-[(3-phenyl-5-isoxazolyl)methyl]-3-(3-chlorophenyl)urea], the “Evaluation (effect for rice blast)” value (Pyricularia oryzae) was 4 (1˜5).

For `O=C(NCc1cc(-c2ccccc2)no1)Nc1ccc(Cl)cc1` [II-50, 1-[(3-phenyl-5-isoxazolyl)methyl]-3-(4-chlorophenyl)urea], the “Evaluation (effect for rice blast)” value (Pyricularia oryzae) was 5 (0).

With `O=C(NCc1cc(-c2ccccc2)no1)Nc1ccccn1` [II-99, 1-[(3-phenyl-5-isoxazolyl)methyl]-3-(2-pyridyl)urea] the “Evaluation (effect for rice blast)” value (Pyricularia oryzae) was 3 (6˜10).

For `O=C(NCc1cc(-c2ccccc2)no1)Nc1cccnc1` [II-100, 1-[(3-phenyl-5-isoxazolyl)methyl]-3-(3-pyridyl)urea], the “Evaluation (effect for cucumber anthracnose)” value [1] was 4 (1˜5) and the “Evaluation (effect for rice blast)” value (Pyricularia oryzae) was 4 (1˜5).

In the case of `O=C(NCc1cc(COc2ccccc2)no1)NC1CCCCC1` [II-104, 3-(3-phenoxymethyl-5-isoxazolyl)methyl-1-cyclohexylurea], the “Evaluation (effect for cucumber anthracnose)” value [1] is reported as 5 (0) and the “Evaluation (effect for rice blast)” value (Pyricularia oryzae) is reported as 5 (0).

For `O=C(NCc1cc(COc2ccccc2)no1)NC1CCCC1` [II-106, 3-(3-phenoxymethyl-5-isoxazolyl)methyl-1-cyclopentylurea], the “Evaluation (effect for cucumber anthracnose)” value [1] was 2 (11˜20) and the “Evaluation (effect for rice blast)” value (Pyricularia oryzae) was 3 (6˜10).

With `CC(=O)Nc1ccc(-c2cc(CNC(=O)c3ccc(C)cc3)on2)cc1` [III-57, N-{[3-(4-acetamidophenyl)-5-isoxazolyl]methyl}-4-methylbenzamide] the “Evaluation (effect for rice blast)” value (Pyricularia oryzae) was 2 (11˜20).

`Cc1ccc(-c2cc(CNC(=O)N3CCCCC3)on2)cc1` [III-203] was tested, and the “Evaluation (effect for rice blast)” value (Pyricularia oryzae) was 2 (11˜20).

With `CC1C(Cl)(Cl)C1(C)C(=O)NCc1cc(-c2ccccc2)no1` (centres unmarked) [III-212] the “Evaluation (effect for rice blast)” value (Pyricularia oryzae) was 2 (11˜20).

`CC(NC(=O)C1(C)C(C)C1(Cl)Cl)c1cc(-c2ccccc2)no1` (centres unmarked) [III-213, N-[1-(3-phenyl-5-isoxazolyl)ethyl]-2,2-dichloro-1,3-dimethylcyclopropanecarboxamide] was tested, and the “Evaluation (effect for rice blast)” value (Pyricularia oryzae) was 3 (6˜10).

`CCc1ccc(C(=O)NCc2cc(Cc3ccccc3)no2)cc1` [IV-6, N-[(3-benzyl-5-isoxazolyl)methyl]-4-ethylbenzamide] was tested, and the “Evaluation (effect for rice blast)” value (Pyricularia oryzae) was 5 (0).

In the case of `CS(=O)(=O)c1ccc(C(=O)NCc2cc(Cc3ccccc3)no2)cc1` [IV-8, N-[(3-benzyl-5-isoxazolyl)methyl]-4-methanesulfonylbenzamide], the “Evaluation (effect for rice blast)” value (Pyricularia oryzae) is reported as 3 (6˜10).

For `COc1ccc(C(=O)NCc2cc(COc3ccccc3C#N)no2)cc1` [IV-51, N-{[3-(2-cyanophenyl)oxymethyl-5-isoxazolyl]methyl}-4-methoxybenzamide], the “Evaluation (effect for rice blast)” value (Pyricularia oryzae) was 2 (11˜20).

`COc1ccc(C(=O)NCc2cc(COc3cccnc3)no2)cc1` [IV-91, N-{[3-(3-pyridyl)oxymethyl-5-isoxazolyl]methyl}-4-methoxybenzamide] was tested, and the “Evaluation (effect for rice blast)” value (Pyricularia oryzae) was 3 (6˜10).

With `COc1ccc(C(=O)NCc2cc(C(=O)c3ccccc3)no2)cc1` [IV-98, N-[(3-benzoyl-5-isoxazolyl)methyl]-4-methoxybenzamide] the “Evaluation (effect for rice blast)” value (Pyricularia oryzae) was 2 (11˜20).

`COc1ccc(C(=O)NCc2cc(C(=O)Nc3ccc(Cl)cc3)no2)cc1` [IV-106, N-{[3-(4-chlorophenyl)aminocarbonyl-5-isoxazolyl]methyl}-4-methoxybenzamide] was tested, and the “Evaluation (effect for rice blast)” value (Pyricularia oryzae) was 2 (11˜20).
